In patent US20100075907A1, “NEUROMEDIN U RECEPTOR AGONISTS AND USES THEREOF” (priority 2006, published 2010):
Non-standard residues stand in square brackets, D forms with d. Residues, ends and D or L forms follow the SMILES beside them. No end group written: not given here. *: point of attachment. Succinimide(1-Et,3-yl) = CCN1C(=O)CC(*)C1=O; hArg = N=C(N)NCCCC[C@H](N)C(=O)O

Tests used:
rat NMUR2 = rat NMUR2 (Rattus norvegicus, UniProt Q9ESQ4); test: 125I-hNMU-25 binding assay, rat R2; design: expressed in transfected cells; host or cells: HEK-293 FLP-In cells (pcDNA5); conditions: for IC50: binding
Protocol: Confluent cell monolayers expressing NMU receptors (the HEK cells described above) were harvested with phosphate buffered saline, collected by centrifugation, and resuspended in membrane buffer (50 mM TrisCl pH 7.4, 5 mM MgCl2, 1× Protease Inhibitor Cocktail, 10 μM phosphoramidon). After the cell pellet was homogenized, the solution was centrifuged at 18,000 rpm for 20 minutes at 4° C. The pellet was resuspended in membrane buffer to yield a final concentration of 0.5-5 μg/μL of membrane and stored at −80° C.
Experiments were performed in assay buffer (25 mM TrisCl, pH 7.4, 10 mM MgCl2, 2 mM EDTA, 1× Protease Inhibitor Cocktail, 100 μg/mL Bacitricin, 10 μM phosphoramidon) in 200 μL volumes in a 96-well format using 2-5 μg of membrane and 0.1 nM ^125I-hNMU-25 (about 12,000 cpm/well). For non-specific binding, 1 μM hNMU-25 was added. About 5 μL of peptides were added to measure antagonist activity, and the entire reaction was incubated at room temperature with shaking for 80 minutes. The reaction was terminated by rapid filtration through 0.3% poly-ethylenimine presoaked Millipore 96-well filter plates and washed with ice-cold buffer (5 mM TrisCl pH 7.4, 10 mM MgCl2, 2.5 mM EDTA, 0.04% Triton X-100). Plates were air-dried overnight at room temperature and recovered radioactivity was determined by standard scintillation counting. IC50 values were determined using GraphPad Prism software.
Concentration-response curves and radioligand-binding data were fitted using Prism (GraphPad Software). Results are summarized below in Tables 8 and 9.

hNMUR2 = hNMUR2 (Homo sapiens, UniProt Q9GZQ4); test: FLIPR calcium mobilization assay, human NMUR2; type: cell-based; design: expressed in transfected cells; host or cells: FLP-In CHO or HEK-293 FLP-In cells (pcDNA5); HEK-293/aeq17 lines (pcDNA3.1) were also made; conditions: functional data, human R2
NMUR1 and NMUR2 = test: NMU receptor subtype selectivity (EC50 ratios human NMUR2/human NMUR1); type: cell-based; conditions: NMUR1 vs NMUR2
Protocol: The present invention provides neuromedin U receptor agonist. The neuromedin U receptor agonist described herein act at NMU receptors, bind the NMU receptors, and stimulate NMU receptor activity. In one aspect, the neuromedin U receptor agonists are specific for one receptor subtype, wherein such specificity is defined as having an IC50 values that is less than about 200 nM in the corresponding NMUR1 or NMUR2 receptor binding assay. Selectivity is based upon functional activity or EC50 ratios at human NMUR2/human NMUR1 for NMUR1-selective peptides and at human NMUR1/human NMUR2 for NMUR2-selective peptides. Further, the selective neuromedin U receptor agonists described herein range from about 21 to 909-fold selective for NMUR1 and from about 2 to 200-fold selective for NMUR2. In another aspect, the neuromedin U receptor agonists are capable of binding and stimulating both the NMUR1 and NMUR2 receptors and have been derivatized to enable the neuromedin U receptor agonists to cross the blood-brain bather and interact with NMU receptors in the brain. The neuromedin U receptor agonists can be used therapeutically and as research tools.

rat NMUR1-TTG = target: T1, rat NMUR1-TTG (Rattus norvegicus, UniProt Q9JJI5); test: FLIPR calcium mobilization assay, rat NMUR1-TTG; type: cell-based; design: expressed in transfected cells; host or cells: FLP-In CHO or HEK-293 FLP-In cells (pcDNA5); conditions: functional data, rat R1-TTG
T1 sequence (Q9JJI5 1-425): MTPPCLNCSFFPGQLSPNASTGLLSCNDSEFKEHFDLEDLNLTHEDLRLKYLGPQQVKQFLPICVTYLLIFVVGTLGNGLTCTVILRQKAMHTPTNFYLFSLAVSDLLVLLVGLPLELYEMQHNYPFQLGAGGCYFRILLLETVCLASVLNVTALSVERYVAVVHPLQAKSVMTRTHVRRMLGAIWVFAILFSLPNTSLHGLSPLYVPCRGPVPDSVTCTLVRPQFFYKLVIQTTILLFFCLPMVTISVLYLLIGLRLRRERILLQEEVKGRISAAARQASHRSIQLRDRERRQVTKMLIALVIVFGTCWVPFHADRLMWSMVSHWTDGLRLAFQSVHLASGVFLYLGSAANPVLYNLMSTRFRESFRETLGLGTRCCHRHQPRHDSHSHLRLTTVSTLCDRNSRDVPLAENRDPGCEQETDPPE

hNMUR1 = target: T2, hNMUR1 (Homo sapiens, UniProt Q9HB89); test: FLIPR calcium mobilization assay, human NMUR1; type: cell-based; design: expressed in transfected cells; host or cells: FLP-In CHO or HEK-293 FLP-In cells (pcDNA5); HEK-293/aeq17 lines (pIRES-puro) were also made; conditions: functional data, human R1
T2 sequence (Q9HB89 1-426): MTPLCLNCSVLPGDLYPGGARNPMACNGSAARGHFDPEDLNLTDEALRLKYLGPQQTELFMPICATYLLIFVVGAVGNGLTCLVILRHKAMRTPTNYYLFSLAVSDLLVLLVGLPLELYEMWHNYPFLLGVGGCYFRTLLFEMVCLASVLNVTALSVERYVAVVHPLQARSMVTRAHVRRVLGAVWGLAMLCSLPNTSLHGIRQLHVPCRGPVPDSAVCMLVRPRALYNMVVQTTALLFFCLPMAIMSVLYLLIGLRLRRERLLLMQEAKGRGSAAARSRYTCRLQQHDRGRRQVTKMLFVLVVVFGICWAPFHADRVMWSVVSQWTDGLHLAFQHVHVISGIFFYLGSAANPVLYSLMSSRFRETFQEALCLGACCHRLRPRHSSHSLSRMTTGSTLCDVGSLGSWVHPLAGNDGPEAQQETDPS

in vitro = conditions: human, plasma

Sequence of hNMUR2 (Q9GZQ4 whole entry): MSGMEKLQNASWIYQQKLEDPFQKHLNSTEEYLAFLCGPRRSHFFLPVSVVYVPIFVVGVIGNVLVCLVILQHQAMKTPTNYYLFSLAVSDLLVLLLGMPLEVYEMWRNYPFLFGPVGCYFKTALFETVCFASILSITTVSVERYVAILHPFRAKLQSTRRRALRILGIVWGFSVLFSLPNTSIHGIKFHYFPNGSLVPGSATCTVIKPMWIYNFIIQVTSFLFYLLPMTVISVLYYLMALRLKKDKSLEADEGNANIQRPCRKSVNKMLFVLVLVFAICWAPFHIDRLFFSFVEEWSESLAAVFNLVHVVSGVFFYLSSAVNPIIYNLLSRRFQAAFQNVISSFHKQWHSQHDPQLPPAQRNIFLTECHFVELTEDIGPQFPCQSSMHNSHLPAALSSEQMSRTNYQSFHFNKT
Sequence of rat NMUR2 (Q9ESQ4 whole entry): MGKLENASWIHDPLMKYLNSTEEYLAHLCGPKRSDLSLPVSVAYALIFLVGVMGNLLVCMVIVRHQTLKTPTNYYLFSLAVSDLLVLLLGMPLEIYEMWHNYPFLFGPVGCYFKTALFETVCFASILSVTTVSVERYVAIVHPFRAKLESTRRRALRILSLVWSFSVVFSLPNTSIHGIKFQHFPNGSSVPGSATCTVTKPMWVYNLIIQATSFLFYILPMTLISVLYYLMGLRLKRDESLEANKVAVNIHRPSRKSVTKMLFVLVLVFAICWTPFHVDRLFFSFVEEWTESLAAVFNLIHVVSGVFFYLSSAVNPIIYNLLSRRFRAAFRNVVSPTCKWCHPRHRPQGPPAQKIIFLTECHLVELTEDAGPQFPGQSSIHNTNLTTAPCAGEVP

Molecule | % inhibition of NMU-25 binding (rat NMUR2) | IC50 (rat NMUR2) | IC50 (hNMUR2) | receptor subtype specificity (NMUR1 and NMUR2) | IC50 (rat NMUR1-TTG) | IC50 (hNMUR1) | half-life at 1 μM (in vitro)
CCN1C(=O)CC(SC[C@H](NC(C)=O)C(=O)N[C@@H](Cc2ccccc2)C(=O)N[C@@H](CCCNC(=N)N)C(=O)N[C@H](C(=O)N[C@@H](CC(=O)O)C(=O)N[C@@H](CCC(=O)O)C(=O)N[C@@H](CCC(=O)O)C(=O)N[C@@H](Cc2ccccc2)C(=O)N[C@@H](CCC(N)=O)C(=O)N[C@@H](CO)C(=O)N2CCC[C@H]2C(=O)N[C@@H](Cc2ccccc2)C(=O)N[C@@H](C)C(=O)N[C@@H](CO)C(=O)N[C@@H](CCC(N)=O)C(=O)N[C@@H](CO)C(=O)N[C@@H](CCCNC(=N)N)C(=O)NCC(=O)N[C@@H](Cc2ccc(O)cc2)C(=O)N[C@@H](Cc2ccccc2)C(=O)N[C@H](C)C(=O)N[C@@H](Cc2c[nH]c3ccccc23)C(=O)N[C@@H](CCCNC(=N)N)C(=O)N2CCC[C@H]2C(=O)N[C@@H](CCCNC(=N)N)C(=O)N[C@@H](CC(N)=O)C(N)=O)C(C)C)C1=O (stereo partly shown) [NMU13] (Ac-C(Succinimide(1-Et,3-yl))FRVDEEFQSPFASQSRGYF[dA]WRPRN-NH2) | 0% | > 1000 nM | > 1000 nM | – | – | – | –
CC(C)C[C@H](NC(=O)[C@H](Cc1c[nH]c2ccccc12)NC(=O)[C@H](Cc1ccccc1)NC(=O)CNC(=O)[C@H](CCCNC(=N)N)NC(=O)[C@H](CO)NC(=O)[C@H](CCC(N)=O)NC(=O)[C@H](CO)NC(=O)[C@H](C)NC(=O)[C@H](Cc1ccccc1)NC(=O)[C@@H]1CCCN1C(=O)[C@H](CO)NC(=O)[C@H](CCC(N)=O)NC(=O)[C@H](Cc1ccccc1)NC(=O)[C@H](CCC(=O)O)NC(=O)[C@H](CCC(=O)O)NC(=O)[C@H](CC(=O)O)NC(=O)[C@@H](NC(=O)[C@H](CCCNC(=N)N)NC(=O)[C@@H](N)Cc1ccccc1)C(C)C)C(=O)N[C@@H](Cc1ccccc1)C(=O)N[C@@H](CCCNC(=N)N)C(=O)N1CCC[C@H]1C(=O)N[C@@H](CCCCNC(=N)N)C(=O)N[C@@H](CC(N)=O)C(N)=O [Agonist O] (H-FRVDEEFQSPFASQSRGFWLFRP[hArg]N-NH2; N-terminus assumed) | – | – | – | bispecific | – | – | –
CC(C)C[C@H](NC(=O)[C@H](Cc1c[nH]c2ccccc12)NC(=O)[C@H](Cc1ccccc1)NC(=O)CNC(=O)[C@H](CCCNC(=N)N)NC(=O)[C@H](CO)NC(=O)[C@H](CCC(N)=O)NC(=O)[C@H](CO)NC(=O)[C@H](C)NC(=O)[C@H](Cc1ccccc1)NC(=O)[C@@H]1CCCN1C(=O)[C@H](CO)NC(=O)[C@H](CCC(N)=O)NC(=O)[C@H](Cc1ccccc1)NC(=O)[C@H](CCC(=O)O)NC(=O)[C@H](CCC(=O)O)NC(=O)[C@H](CC(=O)O)NC(=O)[C@@H](NC(=O)[C@H](CCCNC(=N)N)NC(=O)[C@@H](N)Cc1ccccc1)C(C)C)C(=O)N[C@@H](Cc1ccccc1)C(=O)N[C@@H](CCCNC(=N)N)C(=O)N[C@@H](C)C(=O)N[C@@H](CCCCNC(=N)N)C(=O)N[C@@H](CC(N)=O)C(N)=O [Agonist P] (H-FRVDEEFQSPFASQSRGFWLFRA[hArg]N-NH2; N-terminus assumed) | – | – | – | bispecific | – | – | –
CC(C)C[C@@H](NC(=O)[C@H](Cc1ccccc1)NC(=O)[C@H](Cc1ccc(O)cc1)NC(=O)CNC(=O)[C@H](CCCNC(=N)N)NC(=O)[C@H](CO)NC(=O)[C@H](CCC(N)=O)NC(=O)[C@H](CO)NC(=O)[C@H](C)NC(=O)[C@H](Cc1ccccc1)NC(=O)[C@@H]1CCCN1C(=O)[C@H](CO)NC(=O)[C@H](CCC(N)=O)NC(=O)[C@H](Cc1ccccc1)NC(=O)[C@H](CCC(=O)O)NC(=O)[C@H](CCC(=O)O)NC(=O)[C@H](CC(=O)O)NC(=O)[C@@H](NC(=O)[C@H](CCCNC(=N)N)NC(=O)[C@@H](N)Cc1ccccc1)C(C)C)C(=O)N[C@@H](Cc1c[nH]c2ccccc12)C(=O)N[C@@H](CCCNC(=N)N)C(=O)N1CCC[C@H]1C(=O)N[C@@H](CCCNC(=N)N)C(=O)N[C@@H](CC(N)=O)C(N)=O [Agonist H] (H-FRVDEEFQSPFASQSRGYF[dL]WRPRN-NH2; N-terminus assumed) | 0% | > 1000 nM | > 1000 nM | – | 153 nM | 1.25 nM | –
H-FRVDEEFQSPFASQSRGYFLFRPRN-NH2 [hNMU-25, reference compound] | – | 0.6 nM | 0.8 nM | – | 1 nM | 0.2 nM | < 16 h
FALFRPRN-NH2 [Agonist N] | – | – | – | bispecific | – | – | –
